In patent US6180767A, “Peptide nucleic acid conjugates” (Thomas Jefferson University, priority 1997, dated 2001):
Where no end group is shown, it is not given here.

Experiments:
[1] = system: P6 cells (murine Balb/c3T3 cells transfected with human IGF1R gene); assay: Cellular uptake of fluoresceinated compounds, confocal fluorescence microscopy; type: cell-based; details: 1 μM, 4 hours at 37° C., serum-free DMEM
Description: P6 cells, which are murine Balb/c3T3 cells transfected with human insulin-like growth factor receptor (IGF1R) gene, overexpress IGF1R. The cells were plated on LAB TEK 8 well tissue culture "CHAMBER SLIDES" from Nunc, Inc., Naperville, Ill. in 10% FBS/DMEM at a concentration of 20,000 cells/chamber. The cells were allowed to attach and grow for 24 hours in a humidified cell incubator with 5% CO2 at 37° C. The attached cells were then washed with serum-free DMEM and PBS. The cells were incubated for 4 hours at 37° C. with 1 μM of the fluoresceinated PNA-peptide (H-Gly-SEQ ID NO:5/SEQ ID NO: 1) or fluoresceinyl-PNA (H-Gly-SEQ ID NO:5-CONH2) in serum-free DMEM. Human Jurkat cells, which have very low copies of IGF1R (Lal et al., Leukemia Res. 17, 31-35, 1983) were used as a negative control. The Jurkat cells were grown in 10% FBS/RPMI. The Jurkat cells were treated in the same manner as the P6 cells, except that necessary modifications were made in handling the cells as they grow in suspension. […]
The fixed slides were analyzed under laser confocal fluorescence and phase contrast microscopy to observe the cellular uptake of the fluorescent oligomers. […] This is an advantage over conventional fluorescence microscopy, which cannot differentiate between signals inside and outside of the cells.

[2] = system: tumor cell lines dependent on IGFR1; details: Pietrzkowski et al., Cancer Res. 52, 6447-6451, 1992; cited from earlier work
IGF1-R = IGF1-R (Homo sapiens, UniProt P08069); details: Pietrzkowski et al., Cancer Res. 52, 6447-6451, 1992; cited from earlier work
Sequence of IGF1-R (P08069 31-736 limits assumed): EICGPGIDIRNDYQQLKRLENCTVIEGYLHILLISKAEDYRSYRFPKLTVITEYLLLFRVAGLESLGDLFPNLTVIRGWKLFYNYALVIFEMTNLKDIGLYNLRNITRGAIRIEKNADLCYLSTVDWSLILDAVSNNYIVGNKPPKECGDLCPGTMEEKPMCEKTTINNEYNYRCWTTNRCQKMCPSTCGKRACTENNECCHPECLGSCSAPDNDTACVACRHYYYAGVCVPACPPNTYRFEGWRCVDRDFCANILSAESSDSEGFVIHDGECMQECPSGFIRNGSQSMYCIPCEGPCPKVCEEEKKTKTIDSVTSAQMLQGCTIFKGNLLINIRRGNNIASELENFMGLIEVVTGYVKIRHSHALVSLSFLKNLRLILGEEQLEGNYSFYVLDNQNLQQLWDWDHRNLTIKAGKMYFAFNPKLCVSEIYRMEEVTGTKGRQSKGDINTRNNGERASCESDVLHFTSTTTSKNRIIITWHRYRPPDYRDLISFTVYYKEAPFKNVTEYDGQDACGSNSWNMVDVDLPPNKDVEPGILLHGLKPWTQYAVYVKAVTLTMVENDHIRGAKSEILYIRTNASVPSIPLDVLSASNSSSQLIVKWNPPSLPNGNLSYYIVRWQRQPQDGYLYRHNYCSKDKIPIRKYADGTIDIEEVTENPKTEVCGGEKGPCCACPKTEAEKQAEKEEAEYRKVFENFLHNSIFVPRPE
Sequence of IGF1-R (P08069 741-1367 partner limits assumed): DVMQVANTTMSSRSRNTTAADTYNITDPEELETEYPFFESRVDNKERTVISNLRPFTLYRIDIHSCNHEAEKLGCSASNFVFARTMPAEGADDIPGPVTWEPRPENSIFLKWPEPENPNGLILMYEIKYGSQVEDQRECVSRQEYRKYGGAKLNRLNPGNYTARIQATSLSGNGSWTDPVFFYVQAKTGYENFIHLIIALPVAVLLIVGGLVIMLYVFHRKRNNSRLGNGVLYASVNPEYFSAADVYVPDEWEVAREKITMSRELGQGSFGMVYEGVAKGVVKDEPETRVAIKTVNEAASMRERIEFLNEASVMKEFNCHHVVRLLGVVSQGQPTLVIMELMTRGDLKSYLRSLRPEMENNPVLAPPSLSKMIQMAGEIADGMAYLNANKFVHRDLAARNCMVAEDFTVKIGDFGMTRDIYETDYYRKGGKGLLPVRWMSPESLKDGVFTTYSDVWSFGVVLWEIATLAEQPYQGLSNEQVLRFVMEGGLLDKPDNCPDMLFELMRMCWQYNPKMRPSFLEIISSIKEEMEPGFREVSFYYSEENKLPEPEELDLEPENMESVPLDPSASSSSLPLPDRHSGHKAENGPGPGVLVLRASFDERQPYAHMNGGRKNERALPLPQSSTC

P6 cells = assay: Cellular uptake of [14C]PNA derivatives; type: cell-based, murine; details: 1 μM 14C-labeled derivatives, FIG. 6
Description: (§1) Uptake studies with radiolabeled PNA derivatives were carried out. P6 or Jurkat cells above were plated in 12.5 cm^2 flasks and grown for two days to 50-80% confluence, on the order of 10^6 cells per flask. The medium was then removed and replaced with fresh medium containing 1 μM of the various [^14 C]PNA derivatives, pre-warmed to 37° C.; background cells received medium with no [^14 C]PNA derivatives. After incubation for various times, attached cells were washed directly in the flasks using four washes--once with fresh medium, once with PBS, once with high salt/low pH buffer, and once with PBS. […]
(§2) After the final wash, the cells were lysed in 1 ml of 1% SDS in H2 O, and the samples were processed for total protein measurement and liquid scintillation counting. 50 μl of the lysate was allocated for total protein measurement, and ^14 C activity in the remaining lysate was measured by liquid scintillation counting, from which background counts were subtracted. […]
(§3) Control samples of varying confluence were trypsinized following the last wash, resuspended in PBS for cell counting, and then lysed to obtain total protein values. […] The curve was used to estimate cell counts from the total protein measurements of treated cells, and radioactivity counts were used to calculate pmoles of oligonucleotide using the specific activity of each labeled oligonucleotide. […]

[3] = Serum stability of the PNA-peptide conjugate; type: in vitro ADME; details: 10% fetal bovine serum/PBS, 12 hours and 24 hours, reverse phase HPLC
Description: The title conjugate was incubated in 10% fetal bovine serum/PBS for 12 hours and 24 hours. After the incubation, one volume of acetonitrile was added to precipitated protein, which was pelleted by centrifugation. Free conjugate in the supernatant was dried under vacuo. It was then analyzed by reverse phase HPLC as described above.

Balb/c3T3 cells = assay: Cellular uptake of [14C]PNA derivatives; type: cell-based, murine; details: Balb/c3T3 cells (low levels of IGF1R), 14C-labeled derivatives, FIG. 7
Jurkat cells = assay: Cellular uptake of [14C]PNA derivatives; type: cell-based, Human; details: Jurkat cells (virtually no IGF1R), 1 μM 14C-labeled derivatives, FIG. 8
Description: as §1, §2, §3

## O=C1OC2(c3ccc(O)cc3Oc3cc(O)ccc32)c2ccccc21 [fluorescein]
[1]
  cellular uptake (fluorescence within the cells): absence of uptake

## CSKAPKLPAAYC (cysteine pairing not given here) [SEQ ID NO:8]
[2]
  inhibition of proliferation/growth of tumor cell lines: inhibits the growth of certain cancer cell lines
IGF1-R
  competition with the natural ligand for binding to IGF1-R: competes with the natural ligand for binding to IGF1-R

## GCSKAPKLPAALC (cysteine pairing not given here) [SEQ ID NO:4]
[2]
  inhibition of proliferation/growth of tumor cell lines: inhibits the proliferation of tumor cell lines dependent on IGFR1

## H-Gly-CCGCTTCCTTTC-Gly-Gly-Gly-Gly-D-Cys-D-Ser-D-Lys-D-Cys-NH2 [title PNA-peptide conjugate]
P6 cells
  uptake relative to control PNA or control PNA-peptide: five-fold more uptake
[3]
  stability of the conjugate in serum: stability of the conjugate was confirmed
Balb/c3T3 cells
  uptake relative to the controls: four-fold excess
Jurkat cells
  uptake relative to the controls: little preferential uptake
